Assays:
[1] = target: recombinant protein Wee-1 (Homo sapiens, UniProt P30291); test: Inhibition of enzymatic activity of recombinant protein Wee-1 (HTRF); assay type: biochemical
Protocol: The inhibitory effect of the compounds on the enzyme activity of recombinant protein Wee-1 was determined by HTRF. The procedures are as follows:
After DMSO or serially diluted compounds (up to 200 nM, 1:5 serially diluted) and recombinant proteins were co-incubated in a kinase buffer at 37° C. for 30 min Fluorescein-PolyGAT and ATP were added, and then the reaction was started by the addition of a substrate. After incubation at room temperature for 90 min, an antibody and a detection solution were added, and after further incubation at room temperature for 60 min, fluorescence values were detected (excitation wavelength: 340 nm, emission wavelengths: 495 and 520 nm). The 520 nm/495 nm fluorescence intensity ratio value was calculated, and compared with that of the DMSO group, and then the inhibition percentages and IC50 values of the compounds were calculated.

[2] = test system: MIA PaCa-2 cells; test: In-vitro anti-proliferative activity in combination with gemcitabine on MIA PaCa-2 cells; assay type: cell-based; settings: with 20 nM gemcitabine, 72 h after dosing, intracellular ATP content
Protocol: (§1) MIA PaCa-2 cells were seeded on a 384-well plate at 3000 cells/well, and 20 nM gemcitabine was added. After overnight adherence culture, DMSO or the compounds serially diluted 1:5 from 100 nM were added. The viability was assessed 72 h after dosing by measuring the intracellular ATP content. The inhibition percentage of viable cells by the compounds was calculated by comparing with the DMSO group, and the IC50 value was calculated.

[3] = test system: HT29 subcutaneous xenograft tumor; test: Mouse HT29 subcutaneous xenograft tumor model; assay type: in vivo; settings: for TGI: day 18, nude mouse HT29 xenograft; for Tumor volume on day 1 of treatment (mm^3) / Tumor volume on day 18 of treatment (mm^3): nude mouse HT29 xenograft
Protocol: HT29 is a colon cancer cell. Each nude mouse was grafted subcutaneously with 5×10^6 HT29 cells. When the tumor grew to 100-200 mm^3, the compound was administered orally once a day alone or in combination with 15 mg/kg of gemcitabine injected intraperitoneally once a week, and the tumor volume was measured twice a week and at the end of treatment. Tumor growth inhibition of the compound was calculated according to the following equation: tumor growth inhibition (TGI)=1−(tumor volume on day 18 in treatment group−tumor volume on day 1 in treatment group)/(tumor volume on day 18 in vehicle control group−tumor volume on day 1 in treatment group).

[4] = test system: MIA PaCa-2 cells; test: In-vitro anti-proliferative activity on MIA PaCa-2 cells; assay type: cell-based; settings: Homo sapiens, 72 h after dosing, intracellular ATP content
Protocol: as §1, with “cells/well.” for “cells/well, and 20 nM gemcitabine was added.”, “5 μM” for “100 nM”

[5] = 30 mg/kg orally once a day in combination with 15 mg/kg of gemcitabine i.p. once a week
[6] = monotherapy, 30 mg/kg orally once a day
[7] = gemcitabine 15 mg/kg intraperitoneally once a week

recombinant protein Wee-1, sequence (P30291 whole entry): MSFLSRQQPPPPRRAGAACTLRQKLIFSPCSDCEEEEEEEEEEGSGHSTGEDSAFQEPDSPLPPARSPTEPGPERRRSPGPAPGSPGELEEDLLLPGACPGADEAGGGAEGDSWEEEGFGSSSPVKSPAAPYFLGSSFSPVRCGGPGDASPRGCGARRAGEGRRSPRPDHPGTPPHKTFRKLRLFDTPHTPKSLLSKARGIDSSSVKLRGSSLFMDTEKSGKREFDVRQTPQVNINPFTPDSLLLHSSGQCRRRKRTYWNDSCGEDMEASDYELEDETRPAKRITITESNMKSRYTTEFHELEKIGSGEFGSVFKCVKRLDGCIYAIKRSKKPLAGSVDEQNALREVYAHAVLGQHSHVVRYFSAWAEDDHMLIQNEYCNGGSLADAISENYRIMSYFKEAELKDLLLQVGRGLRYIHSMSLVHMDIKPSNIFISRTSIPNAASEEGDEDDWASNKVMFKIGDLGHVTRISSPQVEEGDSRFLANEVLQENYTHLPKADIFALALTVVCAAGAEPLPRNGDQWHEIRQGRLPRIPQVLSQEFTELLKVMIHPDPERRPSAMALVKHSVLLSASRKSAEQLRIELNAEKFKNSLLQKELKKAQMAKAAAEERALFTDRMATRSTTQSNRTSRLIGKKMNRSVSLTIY

In the case of CN1Cc2cc(Nc3ncc(C#N)c(Nc4cccc(N=S(C)(C)=O)n4)n3)cc3c2[C@H](CCC3)C1 (single isomer, unassigned) [Compound 2], the IC50 [1] is reported as no more than 10 nM, the IC50 [2] is reported as 0.245 nM and the TGI [3, 5] is reported as 109%. The “Tumor volume on day 1 of treatment (mm^3)” value [3, 5] was 112 mm^3, the “Tumor volume on day 18 of treatment (mm^3)” value [3, 5] was 11 mm^3 and the TGI [3, 6] was 99%. The “Tumor volume on day 1 of treatment (mm^3)” value [3, 6] was 112 mm^3, the “Tumor volume on day 18 of treatment (mm^3)” value [3, 6] was 115 mm^3 and the IC50 [4] was 259 nM.

With CN1Cc2cc(Nc3ncc(C#N)c(Nc4cccc(N=S(C)(C)=O)n4)n3)cc3c2[C@@H](CCC3)C1 (single isomer, unassigned) [Compound 3] the IC50 [1] was no more than 10 nM, the IC50 [2] was 6.4 nM and the IC50 [4] was 1090 nM.

For CN1Cc2cc(Nc3ncc(C#N)c(Nc4cccc(N=S(C)(C)=O)n4)n3)cc3c2C(CCC3)C1 (centres unmarked) [Compound 1], the IC50 [1] was no more than 10 nM, the IC50 [2] was 1.9 nM and the IC50 [4] was 236 nM.

In the case of CN1Cc2cc(Nc3ncc(C#N)c(Nc4cccc(N=S(C)(C)=O)n4)n3)cc3c2C(C)(CCC3)C1 (centres unmarked) [Compound 4], the IC50 [1] is reported as no more than 10 nM, the IC50 [2] is reported as 2.4 nM and the IC50 [4] is reported as 968 nM.

With CN1Cc2cc(Nc3ncc(C#N)c(Nc4cccc(N=S(C)(C)=O)n4)n3)cc3c2[C@](C)(CCC3)C1 [Compound 5] the IC50 [1] was no more than 10 nM, the IC50 [2] was 2.1 nM and the IC50 [4] was 1180 nM.

CN1Cc2cc(Nc3ncc(C#N)c(Nc4cccc(N=S(C)(C)=O)n4)n3)cc3c2[C@@](C)(CCC3)C1 [Compound 6] gave an IC50 [1] of no more than 10 nM, an IC50 [2] of 5.3 nM and an IC50 [4] of 910 nM.

Molecule COc1c(Nc2ncc(C#N)c(Nc3cccc(N=S(C)(C)=O)n3)n2)cc2c3c1CCCC3CN(C)C2 (centres unmarked) [Compound 49] has an IC50 [1] of 10 to 50 nM, an IC50 [2] greater than 100 nM and an IC50 [4] greater than 5000 nM.

For CN1Cc2cc(Nc3ncc(C#N)c(Nc4cccc(N=S(C)(C)=O)n4)n3)cc3c2C(CC3)C1 (centres unmarked) [Compound 50], the IC50 [1] was 10 to 50 nM, the IC50 [2] was greater than 100 nM and the IC50 [4] was 148 nM.

CN1Cc2cc(Nc3ncc(C#N)c(Nc4cccc(N=S(C)(C)=O)n4)n3)cc3c2C(CCO3)C1 (centres unmarked) [Compound 64] gave an IC50 [1] of no more than 10 nM, an IC50 [2] of 3.5 nM and an IC50 [4] of 400 nM.

CN1Cc2cc(Nc3ncc(C#N)c(Nc4cccc(N=S(C)(C)=O)n4)n3)cc3c2C1CCC3 (centres unmarked) [Compound 87] showed an IC50 [1] of no more than 10 nM, an IC50 [2] of 1.6 nM and an IC50 [4] of 184 nM.

Molecule CN1Cc2cc(Nc3ncc(C#N)c(Nc4cncc(N=S(C)(C)=O)n4)n3)cc3c2C(CCC3)C1 (centres unmarked) [Compound 105] has an IC50 [1] of no more than 10 nM, an IC50 [2] of 2.1 nM and an IC50 [4] of 441 nM.

CN1Cc2cc(Nc3ncc(C#N)c(Nc4cc5ccccc5c(N=S(C)(C)=O)n4)n3)cc3c2C(CCC3)C1 (centres unmarked) [Compound 108] showed an IC50 [1] of no more than 10 nM, an IC50 [2] of 11 nM and an IC50 [4] of 225 nM.

With CN1Cc2cc(Nc3ncc(C#N)c(Nc4ccc(F)c(N=S(C)(C)=O)n4)n3)cc3c2C(CCC3)C1 (centres unmarked) [Compound 110] the IC50 [2] was 1.1 nM and the IC50 [4] was 186 nM.

For CN1Cc2cc(Nc3ncc(C#N)c(Nc4nc(N=S(C)(C)=O)ccc4F)n3)cc3c2C(CCC3)C1 (centres unmarked) [Compound 112], the IC50 [1] was no more than 10 nM, the IC50 [2] was 29 nM and the IC50 [4] was greater than 5000 nM.

Molecule COc1ccc(Nc2nc(Nc3cc4c5c(c3)CN(C)CC5CCC4)ncc2C#N)nc1N=S(C)(C)=O (centres unmarked) [Compound 121] has an IC50 [1] of no more than 10 nM, an IC50 [2] of 1.4 nM and an IC50 [4] of 89 nM.

CN1Cc2cc(Nc3ncc(C#N)c(Nc4cccc(P(C)(C)=O)n4)n3)cc3c2C(CCC3)C1 (centres unmarked) [Compound 137] gave an IC50 [1] of no more than 10 nM, an IC50 [2] of 26 nM and an IC50 [4] greater than 5000 nM.

Cc1ccc(Nc2nc(Nc3cc4c5c(c3)CN(C)CC5CCC4)ncc2C#N)nc1N=S(C)(C)=O (centres unmarked) [Compound 295] was tested, and the IC50 [1] was no more than 10 nM, the IC50 [2] was 1.5 nM and the IC50 [4] was 72 nM.

CN1Cc2cc(Nc3ncc(C#N)c(Nc4ccc(Cl)c(N=S(C)(C)=O)n4)n3)cc3c2C(CCC3)C1 (centres unmarked) [Compound 296] gave an IC50 [1] of no more than 10 nM, an IC50 [2] of 3.1 nM and an IC50 [4] of 161 nM.

For Nc1ccn([C@@H]2O[C@H](CO)[C@@H](O)C2(F)F)c(=O)n1 [Gemcitabine, gemcitabine, reference compound], the TGI [3, 7] was 57%, the “Tumor volume on day 1 of treatment (mm^3)” value [3, 7] was 112 mm^3 and the “Tumor volume on day 18 of treatment (mm^3)” value [3, 7] was 539 mm^3.

Reference: patent US12655127B2, “Fused ring compound as Wee-1 inhibitor” (WIGEN BIOMEDICINE TECHNOLOGY (SHANGHAI) CO., LTD., priority 2021, dated 2026)
